Values joined by “and” are separate entries in the source; they are usually repeats but may differ in a detail not shown here. Identical values can stand only once. Toxic doses and inconclusive results are not listed. Rule as the data show it: active = T/C of 150% or more; inactive = T/C below 125%.
Test system: L1210 leukemia ip in BDF1 mice, survival T/C
Assay: NCI In Vivo Anticancer Drug Screen. Data for tumor model L1210 Leukemia (intraperitoneal) in B6D2F1 (BDF1) mice
Settings: endpoint: mean survival time, higher = longer survival
Summary of the method: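 Transplanted-tumor mice were given test agent; controls received vehicle only. Survival readings from the two groups were divided (treated over control).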

[1] = dose: 150.0 mg/kg/injection, schedule: Q01DX001 (ip), vehicle: saline
[2] = dose: 200.0 mg/kg/injection, schedule: Q01DX001 (ip), vehicle: saline
[3] = dose: 400.0 mg/kg/injection, schedule: Q01DX001 (ip), vehicle: saline
[4] = dose: 100.0 mg/kg/injection, schedule: Q01DX001 (ip), vehicle: saline
[5] = dose: 100.0 mg/kg/injection, schedule: Q04DX003 (ip), vehicle: saline with Tween-80
[6] = dose: 200.0 mg/kg/injection, schedule: Q04DX003 (ip), vehicle: saline with Tween-80
[7] = dose: 400.0 mg/kg/injection, schedule: Q04DX003 (ip), vehicle: saline with Tween-80
[8] = dose: 75.0 mg/kg/injection, schedule: Q01DX001 (ip), vehicle: saline
[9] = dose: 300.0 mg/kg/injection, schedule: Q01DX001 (ip), vehicle: saline

Measured: T/C

OC1C2C=CC(C2)C1O (stereo unspecified)
inactive: dose: 44.0 mg/kg/injection, schedule: Q01DX001 (ip), vehicle: saline 96 % of control | dose: 66.0 mg/kg/injection, schedule: Q01DX001 (ip), vehicle: saline 100 % of control | [1] 94 % of control | [2] 106 % of control | [3] 100 % of control

CCCCC(=O)N(CC(C)C)CC(C)C
inactive: dose: 25.0 mg/kg/injection, schedule: Q04DX002 (ip), vehicle: carboxymethylcellulose (CMC) 95 % of control | dose: 50.0 mg/kg/injection, schedule: Q01DX001 (ip), vehicle: carboxymethylcellulose (CMC) 95 % of control | dose: 50.0 mg/kg/injection, schedule: Q01DX009 (ip), vehicle: carboxymethylcellulose (CMC) 98 % of control and 120 % of control | dose: 50.0 mg/kg/injection, schedule: Q04DX002 (ip), vehicle: carboxymethylcellulose (CMC) 100 % of control and 102 % of control | dose: 50.0 mg/kg/injection, schedule: Q04DX003 (ip), vehicle: carboxymethylcellulose (CMC) 101 % of control | dose: 100.0 mg/kg/injection, schedule: Q01DX001 (ip), vehicle: carboxymethylcellulose (CMC) 97 % of control | dose: 100.0 mg/kg/injection, schedule: Q01DX009 (ip), vehicle: carboxymethylcellulose (CMC) 95 % of control and 103 % of control | dose: 100.0 mg/kg/injection, schedule: Q04DX002 (ip), vehicle: carboxymethylcellulose (CMC) 98 % of control and 103 % of control and 105 % of control | dose: 100.0 mg/kg/injection, schedule: Q04DX003 (ip), vehicle: carboxymethylcellulose (CMC) 95 % of control | dose: 200.0 mg/kg/injection, schedule: Q01DX001 (ip), vehicle: carboxymethylcellulose (CMC) 88 % of control | dose: 200.0 mg/kg/injection, schedule: Q01DX009 (ip), vehicle: carboxymethylcellulose (CMC) 103 % of control and 92 % of control | dose: 200.0 mg/kg/injection, schedule: Q04DX002 (ip), vehicle: carboxymethylcellulose (CMC) 92 % of control | dose: 200.0 mg/kg/injection, schedule: Q04DX003 (ip), vehicle: carboxymethylcellulose (CMC) 101 % of control | dose: 400.0 mg/kg/injection, schedule: Q04DX002 (ip), vehicle: carboxymethylcellulose (CMC) 102 % of control

CCC1C2Cc3ccc(O)cc3C1(CC)CCN2C (stereo unspecified)
inactive: dose: 50.0 mg/kg/injection, schedule: Q01DX001 (ip), vehicle: saline 101 % of control | [4] 101 % of control

Nc1nc(N)c(N)c(Nc2ccc(Cl)cc2)n1
inactive: dose: 100.0 mg/kg/injection, schedule: Q04DX002 (ip), vehicle: Klucel (hydroxypropylcellulose) (HPC) 101 % of control | dose: 200.0 mg/kg/injection, schedule: Q04DX002 (ip), vehicle: Klucel (hydroxypropylcellulose) (HPC) 101 % of control

CC(C)(C)NS(=O)(=O)c1ccc(Cl)c([N+](=O)[O-])c1
inactive: dose: 100.0 mg/kg/injection, schedule: Q04DX003 (ip), vehicle: Klucel (hydroxypropylcellulose) (HPC) 95 % of control | dose: 200.0 mg/kg/injection, schedule: Q04DX003 (ip), vehicle: Klucel (hydroxypropylcellulose) (HPC) 93 % of control | dose: 400.0 mg/kg/injection, schedule: Q04DX003 (ip), vehicle: Klucel (hydroxypropylcellulose) (HPC) 90 % of control

Cc1ccccc1C1c2ccccc2C(=O)c2cccc(C)c21 (stereo unspecified)
inactive: dose: 100.0 mg/kg/injection, schedule: Q01DX009 (ip), vehicle: saline with Tween-80 101 % of control | [5] 89 % of control | dose: 200.0 mg/kg/injection, schedule: Q01DX009 (ip), vehicle: saline with Tween-80 101 % of control | [6] 102 % of control | dose: 400.0 mg/kg/injection, schedule: Q01DX009 (ip), vehicle: saline with Tween-80 97 % of control | [7] 94 % of control

CC1(C)OC2C3CC(C2O1)n1cnc2c(N)nc[n+](c21)C3 (stereo unspecified)
inactive: [8] 120 % of control | [1] 101 % of control | [9] 106 % of control

Cc1ccc(N=Cc2cc(Cl)ccc2O)cc1.Cc1ccc(N=Cc2cc(Cl)ccc2O)cc1.[Co]
inactive: dose: 25.0 mg/kg/injection, schedule: Q04DX003 (ip), vehicle: saline with Tween-80 94 % of control | [5] 116 % of control and 91 % of control

ClCC1COCO1 (stereo unspecified)
inactive: dose: 12.5 mg/kg/injection, schedule: Q01DX009 (ip), vehicle: saline with Tween-80 107 % of control | dose: 25.0 mg/kg/injection, schedule: Q01DX009 (ip), vehicle: saline with Tween-80 102 % of control | dose: 50.0 mg/kg/injection, schedule: Q01DX009 (ip), vehicle: saline with Tween-80 106 % of control

Cc1c2c(cc3c1sc1ccccc13)CCCC2=O
inactive: [4] 101 % of control | [2] 94 % of control | [3] 101 % of control

CC(=O)Oc1cc(C)[nH]c(=O)c1
inactive: [4] 101 % of control | [2] 105 % of control | [3] 101 % of control

CCOC(=O)C1SCSCC1=O (stereo unspecified)
inactive: [5] 102 % of control | [6] 98 % of control | [7] 98 % of control

COc1ccc(OC)c2ccccc12
inactive: dose: 50.0 mg/kg/injection, schedule: Q01DX005 (ip), vehicle: saline with Tween-80 101 % of control | dose: 100.0 mg/kg/injection, schedule: Q01DX005 (ip), vehicle: saline with Tween-80 101 % of control | dose: 200.0 mg/kg/injection, schedule: Q01DX005 (ip), vehicle: saline with Tween-80 111 % of control | dose: 400.0 mg/kg/injection, schedule: Q01DX005 (ip), vehicle: saline with Tween-80 98 % of control

C[C@]12CCC(=O)C=C1CC[C@@H]1[C@@H]2[C@@H](O)C[C@@]2(C)[C@H]1CC[C@]2(O)C(=O)COC(=O)COCC(=O)O
inactive: dose: 100.0 mg/kg/injection, schedule: Q04DX003 (sc), vehicle: Klucel (hydroxypropylcellulose) (HPC) 101 % of control | dose: 200.0 mg/kg/injection, schedule: Q04DX003 (sc), vehicle: Klucel (hydroxypropylcellulose) (HPC) 102 % of control | dose: 400.0 mg/kg/injection, schedule: Q04DX003 (sc), vehicle: Klucel (hydroxypropylcellulose) (HPC) 101 % of control

CC(O)Cc1c(Cc2ccccc2)nc(N)[nH]c1=O (stereo unspecified)
inactive: dose: 100.0 mg/kg/injection, schedule: Q04DX003 (ip), vehicle: saline 96 % of control | dose: 200.0 mg/kg/injection, schedule: Q04DX003 (ip), vehicle: saline 97 % of control | dose: 400.0 mg/kg/injection, schedule: Q04DX003 (ip), vehicle: saline 92 % of control

Oc1ccc(C=NCCN=Cc2ccc(O)cc2)cc1
inactive: dose: 100.0 mg/kg/injection, schedule: Q01DX001 (ip), vehicle: other 103 % of control | dose: 200.0 mg/kg/injection, schedule: Q01DX001 (ip), vehicle: other 103 % of control | dose: 400.0 mg/kg/injection, schedule: Q01DX001 (ip), vehicle: other 103 % of control

COc1cc(/C=N\NC(=O)c2ccncc2)ccc1O
inactive: [5] 100 % of control | [6] 97 % of control | [7] 103 % of control

N=C(N)CNC(=O)c1ccccc1C(=O)O
inactive: dose: 19.0 mg/kg/injection, schedule: Q01DX009 (ip), vehicle: saline 100 % of control | dose: 38.0 mg/kg/injection, schedule: Q01DX009 (ip), vehicle: saline 92 % of control | [8] 103 % of control | dose: 75.0 mg/kg/injection, schedule: Q01DX009 (ip), vehicle: saline 96 % of control | [1] 107 % of control | dose: 150.0 mg/kg/injection, schedule: Q01DX009 (ip), vehicle: saline 100 % of control | [9] 92 % of control

O=C(Oc1ccc2ccc(=O)oc2c1)N(CCCl)CCCl
inactive: dose: 50.0 mg/kg/injection, schedule: Q01DX009 (ip), vehicle: Klucel (hydroxypropylcellulose) (HPC) 97 % of control | dose: 100.0 mg/kg/injection, schedule: Q01DX009 (ip), vehicle: Klucel (hydroxypropylcellulose) (HPC) 90 % of control | dose: 200.0 mg/kg/injection, schedule: Q01DX009 (ip), vehicle: Klucel (hydroxypropylcellulose) (HPC) 101 % of control

COc1ccc2c(c1)CCC1C2CCC2(C)C1CCC2(C)N(C)C (stereo unspecified)
inactive: dose: 50.0 mg/kg/injection, schedule: Q01DX001 (sc), vehicle: steriod suspending solution 104 % of control

Reference: PubChem BioAssay AID248 (DTP/NCI, 2004)
